The values below come from ChEMBL document CHEMBL4706559, “New indolylarylsulfone non-nucleoside reverse transcriptase inhibitors show low nanomolar inhibition of single and double HIV-1 mutant strains” (Eur J Med Chem, 2020).

For series [1], the system named is Human immunodeficiency virus 1. The series can be described thus: Antiviral activity against HIV-1 NL4-3 infected in human MT-4 cells assessed as virus induced cytopathic effect by MTT assay. The class given is functional, organism-based. The conditions noted are these: Human immunodeficiency virus 1, NL4-3, MT4.
The nature of series [2]: Cytotoxicity against human MT-4 cells assessed as reduction in cell viability by MTT assay. The class given is cell-based, MT4.
Series [3] in a line: Selectivity ratio of CC50 for human MT4 cells to EC50 for antiviral activity against HIV-1 NL4-3 infected in human MT4 cells. It is filed as toxicity, cell-based. The conditions noted are these: read-out: Ratio CC50/EC50.
For series [4], the system named is Human immunodeficiency virus 1. Briefly: Antiviral activity against HIV1 harboring RT K103N mutant infected in human MT4 cells assessed as protection against virus-induced cytopathic effect by MTT assay. The conditions noted are these: Human immunodeficiency virus 1, MT4. The class given is functional, organism-based. A general note: Cytopathic effects are the visible damage that an infection or toxin causes in cultured cells.

Series [5] has as its system Human immunodeficiency virus 1. Briefly: Antiviral activity against HIV1 harboring RT Y181C mutant infected in human MT4 cells assessed as protection against virus-induced cytopathic effect by MTT assay. The class given is functional, organism-based. The conditions noted are these: Human immunodeficiency virus 1, MT4.
Series [6] relates to Human immunodeficiency virus 1. The series can be described thus: Antiviral activity against HIV1 harboring RT Y188L mutant infected in human MT4 cells assessed as protection against virus-induced cytopathic effect by MTT assay. The class given is functional, organism-based. The conditions noted are these: Human immunodeficiency virus 1, MT4.
The test system of series [7] is Human immunodeficiency virus 1. Briefly: Antiviral activity against HIV1 harboring RT K103N/Y181C double mutant infected in human MT4 cells assessed as protection against virus-induced cytopathic effect by MTT assay. It is filed as functional, organism-based. As to conditions: Human immunodeficiency virus 1, MT4.
Series [8] relates to Human immunodeficiency virus 1. Briefly: Resistance index, ratio of EC50 for antiviral activity against HIV1 harboring RT Y188L mutant infected in human MT4 cells to EC50 for antiviral activity against HIV1 NL4-3 infected in human MT4 cells. The class given is functional.
Series [9] has as its system Human immunodeficiency virus 1. The series can be described thus: Resistance index, ratio of EC50 for antiviral activity against HIV1 harboring RT K103N/Y181C double mutant infected in human MT4 cells to EC50 for antiviral activity against HIV1 NL4-3 infected in human MT4 cells. It is filed as functional.
Series [10] concerns the target Human immunodeficiency virus type 1 reverse transcriptase (Human immunodeficiency virus 1, UniProt Q72547). Briefly: Inhibition of RNA-dependent DNA polymerase activity of wild type recombinant HIV-1 His-tagged p66/p51 reverse transcriptase assessed as inhibition of [3H]dTTP incorporation using poly(rA)/oligo(dT) as templates incubated for 15 mins by MicroBeta scintillation counting method.

The target in series [11] is Human immunodeficiency virus type 1 reverse transcriptase (Human immunodeficiency virus 1, UniProt Q72547, K103N). Briefly: Inhibition of RNA-dependent DNA polymerase activity of recombinant HIV-1 p66/p51 reverse transcriptase K103N mutant assessed as inhibition of [3H]dTTP incorporation using poly(rA)/oligo(dT) as templates incubated for 15 mins by MicroBeta scintillation counting method.

A short description of series [12]: Inhibition of RNA-dependent DNA polymerase activity of recombinant HIV-1 p66/p51 reverse transcriptase Y188L mutant assessed as inhibition of [3H]dTTP incorporation using poly(rA)/oligo(dT) as templates incubated for 15 mins by MicroBeta scintillation counting method. Set-up: species or system Human immunodeficiency virus 1.
The nature of series [13]: Inhibition of RNA-dependent DNA polymerase activity of recombinant HIV-1 p66/p51 reverse transcriptase K103N/Y181C mutant assessed as inhibition of [3H]dTTP incorporation using poly(rA)/oligo(dT) as templates incubated for 15 mins by MicroBeta scintillation counting method. Further details: species or system Human immunodeficiency virus 1.
Series [14] relates to Human immunodeficiency virus 1. Briefly: Antiviral activity against wild type HIV-1 P1 infected in human C8166 cells assessed as reduction in viral RNA production at 25 nM. It is filed as functional. The conditions noted are these: Human immunodeficiency virus 1, P1, C8166.
Series [15] deals with Human immunodeficiency virus 1. The series can be described thus: Antiviral activity against wild type HIV-1 P1 infected in human C8166 cells assessed as reduction in viral RNA production at 5 nM. The class given is functional. As to conditions: Human immunodeficiency virus 1, P1, C8166.
Series [16] relates to Human immunodeficiency virus 1. Briefly: Antiviral activity against wild type HIV-1 P1 infected in human C8166 cells assessed as reduction in viral p24 antigen production at 25 nM. It is filed as functional. The conditions noted are these: Human immunodeficiency virus 1, P1, C8166.
The test system of series [17] is Human immunodeficiency virus 1. Briefly: Resistance index, ratio of EC50 for antiviral activity against HIV1 harboring RT K103N mutant infected in human MT4 cells to EC50 for antiviral activity against HIV1 NL4-3 infected in human MT4 cells. It is filed as functional.
Series [18] deals with Human immunodeficiency virus 1. The series can be described thus: Resistance index, ratio of EC50 for antiviral activity against HIV1 harboring RT Y181C mutant infected in human MT4 cells to EC50 for antiviral activity against HIV1 NL4-3 infected in human MT4 cells. It is filed as functional.
The subject of series [19] is Human immunodeficiency virus 1. Briefly: Antiviral activity against wild type HIV-1 P1 infected in human C8166 cells assessed as reduction in viral RNA production at 1 nM. As to conditions: Human immunodeficiency virus 1, P1, C8166. It is filed as functional.

A word on the EC50: it is the concentration giving half of the maximal effect. In general, CC50 refers to the concentration giving 50% cytotoxicity. Usually IC50 stands for the concentration that inhibits the measured activity by half. By inhibition is commonly meant the relative decrease from the control value, in per cent. As for `Cc1cc(C)cc(S(=O)(=O)c2c(C(=O)NCc3ccccc3N)[nH]c3ccc(Cl)cc23)c1`, the EC50 in series [1] is less than 0.7 nM; in series [4], less than 0.7 nM; in series [5], less than 0.7 nM; in [6], 2.1 nM; in [7] it was 23.5 nM. Further, the CC50 in series [2] stood at 46200 nM. Further, the selectivity ratio in [3] was greater than 65900. In addition, the “Ratio EC50” value in [8] was greater than 3; in [9], greater than 33. The IC50 in series [10] stood at 19 nM; in series [11], 7 nM; in series [12] it was 57 nM; in series [13], 15 nM. The inhibition at 0.025 µM in series [14] turned out to be 100%; in series [16] it was 90%. Moreover, the inhibition at 0.005 µM in series [15] came to 10%.

`Cc1cc(C)cc(S(=O)(=O)c2c(C(=O)NCC(=O)NCc3cccc(O)c3)[nH]c3ccc(Cl)cc23)c1`: the EC50 in [1] was less than 0.6 nM; in [4], 437 nM; in [5], 7.6 nM; in series [6] it was 3950 nM; in series [7], 3560 nM. Further, in series [2], the CC50 is greater than 47500 nM. Further, the selectivity ratio in series [3] was greater than 79200. In addition, the “Ratio EC50” value is listed as greater than 728 in [17], greater than 13 in series [18], greater than 6590 in [8] and greater than 5925 in [9].

For the compound `Cc1cc(C)cc(S(=O)(=O)c2c(C(=O)NCc3cccc(O)c3)[nH]c3ccc(Cl)cc23)c1`, the EC50 is less than 0.6 nM in series [1], less than 0.6 nM in series [4], 11 nM in series [5] and 110 nM in [7]. Besides, the CC50 in series [2] is 27000 nM. Also, in series [3], the selectivity ratio was greater than 44900. Further, the “Ratio EC50” value in [18] is greater than 18; in [9] it was greater than 183. Further, the IC50 in series [10] was 68 nM; in series [11] it was 2 nM; in series [12] it was 33 nM; in series [13], 45 nM. Also, the inhibition at 0.025 µM in [14] was determined as 85%; in [16], 55%. In series [15], the inhibition at 0.005 µM stood at 38%. Further, the inhibition at 0.001 µM in [19] was 7%.

Regarding `Cc1cc(C)cc(S(=O)(=O)c2c(C(=O)NC(C)C(=O)NCc3cccc(O)c3)[nH]c3ccc(Cl)cc23)c1` (stereo not drawn), the EC50 in series [1] is less than 0.6 nM; in series [4], 18.5 nM; in [5], 7.4 nM; in [6], 3200 nM; in [7], 3670 nM. In addition, in series [2], the CC50 worked out at 23800 nM. Besides, the selectivity ratio in series [3] is greater than 39600. Further, the “Ratio EC50” value in series [17] is greater than 31; in series [18], 12; in [8] it was greater than 5340; in series [9], greater than 5239. For the same compound, the IC50 in series [10] came out at 208 nM; in series [11], 12 nM; in series [12], 34 nM; in series [13], 842 nM.

`Cc1cc(C)cc(S(=O)(=O)c2c(C(=O)NCCc3ccc(O)cc3)[nH]c3ccc(Cl)cc23)c1`: the EC50 is less than 0.7 nM in series [1]; 166 nM in series [4]; 85 nM in series [5]; greater than 27400 nM in [6]; 4310 nM in series [7]. The CC50 in [2] stood at 27400 nM. The selectivity ratio in series [3] was greater than 39100. Further, the “Ratio EC50” value in [17] is greater than 276; in [18] it was greater than 141; in [8], greater than 39103; in [9], 6152.

In the case of `Cc1cc(C)cc(S(=O)(=O)c2c(C(=O)NC(C)C(=O)NCc3ccccc3O)[nH]c3ccc(Cl)cc23)c1` (stereo not drawn), the EC50 in series [1] is less than 0.6 nM; in series [4], 37 nM; in [5], 41 nM; in series [6], 6560 nM; in series [7], 5240 nM. Further, in series [2], the CC50 stood at 14400 nM. Also, the selectivity ratio in series [3] was greater than 23900. The “Ratio EC50” value in [17] is on record as greater than 62; in [18], greater than 68; in [8], 10925; in series [9], greater than 8733.

On to `Cc1cc(C)cc(S(=O)(=O)c2c(C(=O)NCC(=O)NCc3ccccc3O)[nH]c3ccc(Cl)cc23)c1`, for which the EC50 in series [1] is less than 0.6 nM; in [4] it was 151 nM; in series [5] it was 1.9 nM; in [6], 1.7 nM; in series [7] it was 4620 nM. In [2], the CC50 is greater than 47300 nM. The selectivity ratio in series [3] was greater than 78900. Also, the “Ratio EC50” value in series [17] was greater than 251; in series [18], greater than 3.2; in [8], greater than 2.8; in series [9], greater than 7701.

For `Cc1cn([C@H]2C[C@H](N=[N+]=[N-])[C@@H](CO)O2)c(=O)[nH]c1=O` [ZIDOVUDINE], the EC50 in series [1] came out at 3.7 nM; in [7], 16 nM. In addition, the CC50 in series [2] was greater than 30600 nM. Also, in series [3], the selectivity ratio is greater than 8270. Moreover, the “Ratio EC50” value in series [17] is 4.3; in series [18] it was 1.6; in [8], 8.9.
